{"source": "patent US11013726B2", "about": "(Arbutus Biopharma Corporation, priority 2016, dated 2021)", "data": [{"system": "HBsAg", "experiment": "HBsAg assay", "assay_type": "cell-based, hepatitis B virus", "conditions": "Hepatitis B virus, HepG2.2.15, 144 h, read-out: sAg EC50, μM, HepG2.2.15 cells, day 6", "experimental": "(§1) Inhibition of HBsAg was determined in HepG2.2.15 cells. Cells were maintained in culture medium containing 10% fetal calf serum, […], Glutamine, penicillin/streptomycin. Cells were seeded in 96-well collagen-coated plate at a density of 30,000 cells/well. Serially diluted compounds were added to cells next day at the final DMSO concentration of 0.5%. Cells were incubated with compounds for 2-3 days, after which medium was removed. Fresh medium containing compounds was added to cells for additional 3-4 days. At day 6 after exposure of compounds, supernatant was collected, the HBsAg immunoassay (microplate-based chemiluminescence immunoassay kits, CLIA, Autobio Diagnosics Co., Zhengzhou, China, Catalog # CL0310-2) was used to determine the level of HBsAg according to manufactory instruction. Dose-response curves were generated and the EC50 value (effective concentrations that achieved 50% inhibitory effect) were determined using XLfit software. In addition, cells were seeded at a density of 5,000 cells/well for determination of cell viability in the presence and absence of compounds by using CellTiter-Glo reagent (Promega). Tables 1-3 show EC50 values obtained by the HBsAg assay for selected compounds.", "units": {"EC50": "µM"}, "values": [{"compound": "COCCCOc1cc2c(nc1OC)-c1cc(=O)c(-c3nc(C)no3)cn1[C@H](C(C)C)C2", "note": "[Example 111, (S)-6-isopropyl-2-methoxy-3-(3-methoxypropoxy)-9-(3-methyl-1,2,4-oxadiazol-5-yl)-5,6-dihydro-10H-pyrido[1,2-h][1,7]naphthyridin-10-one]", "EC50": 0.29}, {"compound": "COc1cc2c(cc1Cl)-c1cc(=O)c(C(=O)O)cn1C(COC(C)C)CO2", "note": "(stereo not drawn) [Example 11, 2-Chloro-7-(isopropoxymethyl)-3-methoxy-11-oxo-6,7-dihydro-11H-benzo[f]pyrido[1,2-d][1,4]oxazepine-10-carboxylic acid]", "EC50": 12}, {"compound": "CC(C)[C@@H]1COc2cc(OCC(F)(F)F)c(Cl)cc2-c2cc(=O)c(C(=O)O)cn21", "note": "[Example 34, (R)-2-Chloro-7-isopropyl-11-oxo-3-(2,2,2-trifluoroethoxy)-6,7-dihydro-11H-benzo[f]pyrido[1,2-d][1,4]oxazepine-10-carboxylic acid]", "EC50": 0.086}, {"compound": "CCc1cc2c(cc1OCC1CC1)OC[C@@H](C(C)C)n1cc(C(=O)O)c(=O)cc1-2", "note": "[Example 50, (R)-3-(Cyclopropylmethoxy)-2-ethyl-7-isopropyl-11-oxo-6,7-dihydro-11H-benzo[f]pyrido[1,2-d][1,4]oxazepine-10-carboxylic acid]", "EC50": 0.011}, {"compound": "COCCCOc1cc2c(cc1Cl)-c1cc(=O)c(C(=O)O)cn1C(C(C)C)CO2", "note": "(stereo not drawn) [Example 33, 2-Chloro-7-isopropyl-3-(3-methoxypropoxy)-11-oxo-6,7-dihydro-11H-benzo[f]pyrido[1,2-d][1,4]oxazepine-10-carboxylic acid]", "EC50": 0.029}, {"compound": "CC(C)(C)C1Cc2cc3c(cc2-c2cc(=O)c(C(=O)O)cn21)OCCCO3", "note": "(stereo not drawn) [Example 90, 6-(Tert-butyl)-2-oxo-6,7,11,12-tetrahydro-2H,10H-[1,4]dioxepino[2,3-g]pyrido[2,1-a]isoquinoline-3-carboxylic acid]", "EC50": 0.095}, {"compound": "COCCCOc1cc2c(nc1Cl)-c1cc(=O)c(C(=O)O)cn1C1(CCCC1)CO2", "note": "[Example 70, 2′-Chloro-3′-(3-methoxypropoxy)-11′-oxo-6′H,11′H-spiro[cyclopentane-1,7′-dipyrido[1,2-d:2′,3′-f][1,4]oxazepine]-10′-carboxylic acid]", "EC50": 0.041}, {"compound": "Cc1cc2c(cc1OCCCO)OC[C@@H](C(C)C)n1cc(C(=O)O)c(=O)cc1-2", "note": "[Example 60, (R)-3-(3-Hydroxypropoxy)-7-isopropyl-2-methyl-11-oxo-6,7-dihydro-11H-benzo[f]pyrido[1,2-d][1,4]oxazepine-10-carboxylic acid]", "EC50": 0.057}, {"compound": "COc1ccc2c(n1)-c1cc(=O)c(C(=O)O)cn1[C@@H]2C(C)C", "note": "[Example 172, (R)-5-Isopropyl-2-methoxy-9-oxo-5,9-dihydropyrido[2,3-a]indolizine-8-carboxylic acid]", "EC50": 0.82}, {"compound": "CC(C)COc1cc2c(nc1C1CC1)-c1cc(=O)c(C(=O)O)cn1[C@H](C(C)C)CO2", "note": "[Example 76, (R)-2-Cyclopropyl-3-isobutoxy-7-isopropyl-11-oxo-6,7-dihydro-11H-dipyrido[1,2-d:2′,3′-f][1,4]oxazepine-10-carboxylic acid]", "EC50": 0.86}, {"compound": "COCC1COc2cc3c(cc2OC1)-c1cc(=O)c(C(=O)O)cn1C(C(C)(C)C)C3", "note": "(stereo not drawn) [Example 96, 6-(Tert-butyl)-11-(methoxymethyl)-2-oxo-6,7,11,12-tetrahydro-2H,10H-[1,4]dioxepino[2,3-g]pyrido[2,1-a]isoquinoline-3-carboxylic acid]", "EC50": 0.14}, {"compound": "CC(C)[C@@H]1COc2cc(O)c(Cl)nc2-c2cc(=O)c(C(=O)O)cn21", "note": "[Example 78, (R)-2-Chloro-3-hydroxy-7-isopropyl-11-oxo-6,7-dihydro-11H-dipyrido[1,2-d:2′,3′-f][1,4]oxazepine-10-carboxylic acid]", "EC50": 5}, {"compound": "CC(C)(C)C1Cc2cc3c(cc2-c2cc(=O)c(C(=O)O)cn21)OCC1(COC1)CO3", "note": "(stereo not drawn) [Example 93, 6′-(Tert-butyl)-2′-oxo-6′,7′-dihydro-2′H,10′H,12′H-spiro[oxetane-3,11′-[1,4]dioxepino[2,3-g]pyrido[2,1-a]isoquinoline]-3′-carboxylic acid]", "EC50": 0.42}, {"compound": "COCCCNc1cc2c(cc1Cl)-c1cc(=O)c(C(=O)O)cn1[C@H](C(C)C)CO2", "note": "[Example 61, (R)-2-Chloro-7-isopropyl-3-((3-methoxypropyl)amino)-11-oxo-6,7-dihydro-11H-benzo[f]pyrido[1,2-d][1,4]oxazepine-10-carboxylic acid]", "EC50": 0.023}, {"compound": "COCCCOc1cc2c(nc1OC)-c1cc(=O)c(C(C)=O)cn1C(C(C)C)C2", "note": "(stereo not drawn) [Example 142, 9-Acetyl-6-isopropyl-2-methoxy-3-(3-methoxypropoxy)-5,6-dihydro-10H-pyrido[1,2-h][1,7]naphthyridin-10-one]", "EC50": 0.62}, {"compound": "COc1nc2c(cc1Cl)-c1cc(=O)c(C(=O)O)cn1C(C(C)C)CO2", "note": "(stereo not drawn) [Example 104, 2-Chloro-7-isopropyl-3-methoxy-11-oxo-6,7-dihydro-11H-dipyrido[1,2-d:3′,2′-f][1,4]oxazepine-10-carboxylic acid]", "EC50": 24.2}, {"compound": "COc1ccc2c(c1)OC[C@@H](C(C)C)n1cc(C(=O)O)c(=O)cc1-2", "note": "[Example 17, (R)-7-Isopropyl-3-methoxy-11-oxo-6,7-dihydro-11H-benzo[f]pyrido[1,2-d][1,4]oxazepine-10-carboxylic acid]", "EC50": 0.88}, {"compound": "COCCCOc1cc2c(cc1Cl)-c1cc(=O)c(C(=O)O)cn1[C@H](CCO)CO2", "note": "[Example 43, (R)-2-Chloro-7-(2-hydroxyethyl)-3-(3-methoxypropoxy)-11-oxo-6,7-dihydro-11H-benzo[f]pyrido[1,2-d][1,4]oxazepine-10-carboxylic acid]", "EC50": 0.35}, {"compound": "COCCCOc1cc2c(cc1Cl)-c1cc(=O)c(N(C)C(=O)OC(C)(C)C)cn1[C@H](C(C)C)CO2", "note": "[Example 141, Tert-butyl (R)-(2-chloro-7-isopropyl-3-(3-methoxypropoxy)-11-oxo-6,7-dihydro-11H-benzo[f]pyrido[1,2-d][1,4]oxazepin-10-yl)(methyl)carbamate]", "EC50": 1}, {"compound": "C=C1COc2cc3c(cc2OC1)-c1cc(=O)c(C(=O)O)cn1C(C(C)(C)C)C3", "note": "(stereo not drawn) [Example 98, 6-(Tert-butyl)-11-methylene-2-oxo-6,7,11,12-tetrahydro-2H,10H-[1,4]dioxepino[2,3-g]pyrido[2,1-a]isoquinoline-3-carboxylic acid]", "EC50": 0.1}, {"compound": "COCCCOc1cc2c(cc1Cl)-c1cc(=O)c(NC(=O)NC(C)(C)C)cn1C(C(C)(C)C)C2", "note": "(stereo not drawn) [Example 126, 3-Tert-butyl-1-[6-tert-butyl-10-chloro-9-(3-methoxypropoxy)-2-oxo-6H,7H-pyrido[2,1-a]isoquinolin-3-yl]urea]", "EC50": 6.1}, {"compound": "COc1cc2c(cc1Cl)-c1cc(=O)c(C(=O)O)cn1C(CC(C)C)CO2", "note": "(stereo not drawn) [Example 5, 2-Chloro-7-isobutyl-3-methoxy-11-oxo-6,7-dihydro-11H-benzo[f]pyrido[1,2-d][1,4]oxazepine-10-carboxylic acid]", "EC50": 0.91}, {"compound": "CC(C)[C@@H]1CCc2cc3c(nc2-c2cc(=O)c(C(=O)O)cn21)OCCO3", "note": "[Example 170, (S)-6-Isopropyl-2-oxo-2,6,7,8,11,12-hexahydro-[1,4]dioxino[2′,3′:5,6]pyrido[2,3-c]pyrido[1,2-a]azepine-3-carboxylic acid e]", "EC50": 5}, {"compound": "CC(C)[C@@H]1COc2cc(OCC(C)(C)CO)c(Cl)cc2-c2cc(=O)c(C(=O)O)cn21", "note": "[Example 37, (R)-2-Chloro-3-(3-hydroxy-2,2-dimethylpropoxy)-7-isopropyl-11-oxo-6,7-dihydro-11H-benzo[f]pyrido[1,2-d][1,4]oxazepine-10-carboxylic acid]", "EC50": 0.012}, {"compound": "CC(C)[C@@H]1COc2cc(OCc3ccccc3)c(Cl)nc2-c2cc(=O)c(C(=O)O)cn21", "note": "[Example 77, (R)-3-(Benzyloxy)-2-chloro-7-isopropyl-11-oxo-6,7-dihydro-11H-dipyrido[1,2-d:2′,3′-f][1,4]oxazepine-10-carboxylic acid]", "EC50": 3.2}, {"compound": "COc1cc2c(cc1Cl)-c1cc(=O)c(C(=O)O)cn1C1CCCC1O2", "note": "(stereo not drawn) [Example 14, 12-Chloro-11-methoxy-2-oxo-5a,7,8,8a-tetrahydro-2H,6H-benzo[f]cyclopenta[b]pyrido[1,2-d][1,4]oxazepine-3-carboxylic acid]", "EC50": 0.56}, {"compound": "COCCCOc1cc2c(nc1Cl)-c1cc(=O)c(C(=O)O)cn1C1C(CCC1(C)C)O2", "note": "(stereo not drawn) [Example 81, 6-Chloro-7-(3-methoxypropoxy)-12,12-dimethyl-3-oxo-9a,11,12,12a-tetrahydro-3H,10H-cyclopenta[b]dipyrido[1,2-d:2′,3′-f][1,4]oxazepine-2-carboxylic acid]", "EC50": 0.011}, {"compound": "CCOCCOc1cc2c(cc1CC)-c1cc(=O)c(C(=O)O)cn1[C@H](C(C)C)CO2", "note": "[Example 57, (R)-3-(2-Ethoxyethoxy)-2-ethyl-7-isopropyl-11-oxo-6,7-dihydro-111H-benzo[f]pyrido[1,2-d][1,4]oxazepine-10-carboxylic acid]", "EC50": 0.034}, {"compound": "COCCCOc1cc2c(cc1Cl)-c1cc(=O)c(NC(=O)OC(C)(C)C)cn1C(C(C)(C)C)C2", "note": "(stereo not drawn) [Example 119, Tert-butyl N-[6-tert-butyl-10-chloro-9-(3-methoxypropoxy)-2-oxo-6H,7H-pyrido[2,1-a]isoquinolin-3-yl]carbamate]", "EC50": 0.14}]}, {"system": "HBsAg", "experiment": "HBsAg assay", "assay_type": "cell-based, hepatitis B virus", "conditions": "read-out: sAg EC50; HepG2.2.15 cells, day 6", "experimental": "as §1", "units": {"EC50": "µM"}, "values": [{"compound": "COCCCOc1cc2c(nc1OC)-c1cc(=O)c(C(=O)O)cn1C(C)(C(C)(C)C)C2", "note": "(single isomer, unassigned) [Example 159, 6-(Tert-butyl)-2-methoxy-3-(3-methoxypropoxy)-6-methyl-10-oxo-5,10-dihydro-6H-pyrido[1,2-h][1,7]naphthyridine-9-carboxylic acid]", "EC50": 0.0009}]}]}
